{"source": "patent US12565680B2", "about": "“Cancer neoantigens and their utilities in cancer vaccines and TCR-based cancer immunotherapy” (THE METHODIST HOSPITAL SYSTEM, priority 2018, dated 2026)", "assay_type_in_all_cases": "cell-based, human", "key": {"[1]": {"tested_on": "CD4^+ T cells isolated from 136TIL", "experiment": "T-cell reactivity assay (IFN-γ ELISA): TMGs/minigenes in 293IMDR1/DP4 and 293IMDR11/DP4 cells", "conditions": "293IMDR1/DP4 cells", "from_the_text": "Using several different approaches (293-engineered APCs and B cells, as well as different libraries) and tumor-reactive T cells (TIL lines and clones), 6 MHC-II antigens (4 mutation-derived neoantigens and 2 derived from alternative ORF and 3′ UTR region) were identified and 3 MHC-I neoantigens in 135 mel tumor cells. It appears that the number of neoantigens recognized by T cells is rather limited, even though there are 232 somatic mutations (Table 3). To extend the findings, exome sequencing of genomic DNAs isolated from the second patient tumor (136 mel) and 136TIL cells (as a control) was performed and identified 348 somatic mutations that were unique to 136 tumor cells (FIG. 8A) (Table 4). A library was designed and constructed containing 35 TMGs (10 mutations in each TMG) in pTSX targeting expression vector based on somatic mutations. […] By contrast, no appreciable T cell activity was observed against the corresponding WT counterparts (FIG. 8C). Because ANKIB1 can be presented by both 293IMDR1/DP4 and 293IMDR11/DP4 cells (FIG. 8B), it is likely that ANKIB1 is presented by HLA-DP4 molecules for T cell recognition.\n(§1) 96-well tissue culture plates were coated with phosphate-buffered saline (PBS, GenDEPOT) containing 50 μg/ml poly-L-lysine (Millipore Sigma) at 37° C. 10 min later, the plates were rinsed twice with PBS. Tumor cells or 293-APCs were seeded at 5×10^4/well in the 96-well plate and cultured at 37° C., 5% CO2 for at least 4 h. For plasmid transfection, 250 ng of plasmid DNA were transfected into 293-APCs per well with 0.5 μl of Lipofectamine 2000 (Thermo Fisher Scientific) according to the manufacturer's instructions and incubated at 37° C., in 5% CO2 overnight. For peptide presentation, synthesized peptides (GeneScript) were added to each well at different final concentrations from 10^2 to 10^−4 μM and incubated at 37° C., 5% CO2. The cells transfected with plasmids or pulsed with peptides were washed with TCM twice, and then cocultured with T cells (1×10^5/well). After overnight culture, 50 μl of supernatant was collected for measuring cytokine release with an ELISA assay.\n96-well microplate (Greiner Bio-one) was coated with 50 μl of PBS containing anti-human IFN-γ (Thermo Fisher Scientific, primary antibody, 1 μg/ml) per well and incubated at 4° C. overnight. […] The plate was read at OD450 nm. The concentration of IFN-γ was calculated by standard reading.\nThe screening of antigen-specific T cells against TMGs were performed as described in T-cell reactivity assay above. […] The transfected cells were cocultured with tumor-reactive T cells overnight and the IFN-γ release in the supernatant in each well was determined by ELISA on the second day."}, "T-cell clones of 135TIL": {"tested_on": "T-cell clones of 135TIL", "experiment": "IFN-γ ELISA with tumor-reactive T-cell clones of 135TIL", "conditions": "for percentage of CD8^+ tumor-reactive T-cell clones recognizing the neoantigen: 40 clones; for number of CD8^+ tumor-reactive T-cell clones recognizing the neoantigen: of 40 clones", "from_the_text": "Thus, immunogenic antigens can be generated from various sources or mechanisms [such as alternative ORFs, noncoding regions (3′ and 5′ UTRs, introns, noncoding RNA)]. […] All other tumor-reactive CD4^+ T-cell clones and CD8^+ T-cell clones recognized the mutation-derived neoantigens. […] To identify these two antigens recognized by these two CD4^+ T-cell clones, an Ii-fusion cDNA library derived from 135 mel tumor cells was constructed using experimental procedures. The Ii-fusion cDNA library pools (approximately 100 cDNA clones per pool) were transfected into 293IMDR3/DP4 or 293IMDR4/DP4 cells, followed by co-culturing with CD4^+ T-cell clones (135-1C1 or 135-1E1). After 2×10^5 cDNA clones, positive cDNA library pools that stimulate two T-cell clones, respectively, were identified based on IFN-γ release by ELISA (FIG. 6B). The positive pools were then transformed into Stbl3™ Escherichia coli, and single bacteria colonies were picked for plasmid DNA isolation. The screening assays were repeated in the same APCs transfected with the single cDNA-containing plasmids, and identified three clones that were able to stimulate 135-1C1 T cells, and two clones that reacted with 135-1E1 T cells (FIG. 6C). […] The 135-1E1 T cell-reactive cDNA clones encoded the product translated from an alternative reading frame of CTAG2 (LAGE1b) (FIG. 6C and FIG. 7A). […] LAGE1 is a cancer-testis antigen, with over 80% amino acid sequence identical to NY-ESO-1 protein, which is the most immunogenic tumor antigen identified to date. To define the T cell epitopes, wee generated a series of deletions and truncations of 3′ UTR region of ADIPOR2 gene, and narrowed down T cell epitope to a 26 aa peptide-coding sequence that stimulate 135-1C1 T cell response (FIG. 7D). Using similar approach, T cell epitopes were narrowed down to a 69 aa peptide-coding sequence of the LAGE1b alternative ORF2 for 135-1E1 T-cell recognition (FIG. 7E).\nUsing systemic and multiple approaches, 8 cancer neoantigens were identified in 135 mel and 7 neoantigens in 136 mel. To understand the potential mechanisms that restrain the number of neoantigens that could induce T cell response, it was asked whether these neoantigens were equally recognized by T cells.\nT-cell cloning and expansion were performed. Briefly, T-cell clones from 135TILs were generated by a limited dilution (0.3 cell/well) in 96-well plates. Allogeneic PBMCs from normal donors were irradiated (60 Gy) and then seeded as feeder cells (7×10^4/well) in TCM containing 35 ng/ml OKT3 (anti-hCD3 antibody) (R&D Systems) and 35 ng/ml anti-hCD28 antibody (R&D Systems). On day 1, recombinant IL-2 was added to the final concentration of 300 IU/ml. On day 5, half of the culture medium was replaced with fresh TCM containing recombinant IL-2, and then the medium was changed every other day or when the medium color turned yellow. On day 14, T-cell clones were harvested, counted, tested for tumor reactivity. Tumor reactive T-cell clones were further expanded.\nas §1, with “assay. […]” for “assay.”"}, "135TIL": {"tested_on": "135TIL", "experiment": "Intracellular staining of IFN-γ after neoantigen peptide stimulation, 135TIL", "conditions": "intracellular cytokine staining", "experimental": "(§2) T cells were stimulated by various in vitro methods, such as tumor cells, peptides or DNA encoding neoantigens, etc. and induced to release cytokines. Stimulated T cells were resuspended in 100 μl of Cytofix/Cytoperm solution (BD Biosciences) per well for microwell plates (or 250 μl for tubes) and incubated for 20 min at 4° C. for cell fixation. Fixed cells were permeabilized by washing twice in 1× Perm/Wash buffer (BD Biosciences). Then the fixed/permeabilized cells were thoroughly resuspended in 50 μl of 1× Perm/Wash buffer containing 1 μl of phycoerythrin (PE)-conjugated IFN-γ antibody (Thermo Fisher Scientific) and incubate at 4° C. for 30 min in the dark. After that the cells were washed twice with 1× Perm/Wash buffer and ready for flow cytometric analysis."}, "[2]": {"tested_on": "CD4^+136-C13 and 136-C22 T cell clones", "experiment": "TMG/minigene screening with T cell clones of 136TIL", "conditions": "293IMDR1/DP4 cells", "experimental": "As shown in 135 mel, ADIPOR2 and LAGE1b were identified as tumor antigens recognized by T cell clones that were in relatively low abundance in the bulk TIL population. Thus, T cell clones generated from 136TILs were tested for their ability to recognize the newly identified as well as unknown neoantigens. 293IMDR1/DP4 and 293IMDR11/DP4 cells were transfected with 35 TMGs, respectively, followed by co-culturing with T cells clones for overnight."}, "136TIL": {"tested_on": "136TIL", "experiment": "Intracellular staining of IFN-γ after neoantigen peptide stimulation, 136TIL", "conditions": "for neoantigen-specific CD4^+ T cells in the total T cell population: fibroblasts loaded with peptide", "from_the_text": "Among them, MAPK9 and ANKIB1 neoantigen-specific CD4^+ T cells accounted for 14.3% and 5.2% in the total T cell population, which accounted for 58% and 21% in the total tumor-reactive CD4^+ T cell population, respectively (FIG. 11B). By contrast, other neoantigen-specific CD4^+ T cells accounted for only a small percentage of T cells in the total T cell population (FIG. 11A). Since HHAT is only one MHC-I neoantigen, it was shown that HHAT neoantigen-specific CD8^+ T cells accounted for 10.6% in the total T cell population when stimulation with HHAT peptide (FIG. 11A), which accounted for 73% in the total tumor-reactive CD8^+ T cell population (FIG. 11B).\nas §2"}}}
{"sequence": "KDAARPAYWVPDYEILHCHNCRKEF [ZFYVE1, MHC-II neoantigen of patient #136]", "values": [{"measurement": "T cell recognition, IFN-γ release by CD4^+ 136TIL", "setting": "[1]", "value": "capable of stimulating CD4^+ T cells for IFN-γ release"}]}
{"sequence": "RLKASLDRPFTNSESAFYSIVGLSS [RPN2, MHC-I neoantigen of patient #135]", "values": [{"measurement": "percentage of CD8^+ tumor-reactive T-cell clones recognizing the neoantigen", "setting": "T-cell clones of 135TIL", "value": 12.5, "unit": "%"}, {"measurement": "number of CD8^+ tumor-reactive T-cell clones recognizing the neoantigen", "setting": "T-cell clones of 135TIL", "value": 5}, {"measurement": "CD8^+ T cells recognizing the neoantigen in the total T cell population", "setting": "135TIL", "value": 1.54, "unit": "%"}]}
{"sequence": "SMPLWDFQGSTMRTSQYVRLTPDER [LMAN2, MHC-II neoantigen of patient #136]", "values": [{"measurement": "T cell recognition, IFN-γ release by CD4^+ 136TIL", "setting": "[1]", "value": "capable of stimulating CD4^+ T cells for IFN-γ release"}]}
{"sequence": "PFYLGHTIKSGDFEYVGMEGGIVLS [C1GALT1C1, MHC-II neoantigen of patient #136 recognized by clone C13]", "values": [{"measurement": "recognition by T cell clones 136-C13 (TMG13) and 136-C22 (TMG8)", "setting": "[2]", "value": "MHC-II neoantigens"}]}
{"sequence": "LLLAGYLAQQYLLLPTPKVIGIDLG [HSPA13, MHC-II neoantigen of patient #136 recognized by clone C22]", "values": [{"measurement": "recognition by T cell clones 136-C13 (TMG13) and 136-C22 (TMG8)", "setting": "[2]", "value": "MHC-II neoantigens"}]}
{"sequence": "YPGIKFEELFPDCIFPSESERDKIK [MAPK9, MHC-II neoantigen of patient #136]", "values": [{"measurement": "T cell recognition, IFN-γ release by CD4^+ 136TIL", "setting": "[1]", "value": "capable of stimulating CD4^+ T cells for IFN-γ release"}, {"measurement": "share in the total tumor-reactive CD4^+ T cell population", "setting": "136TIL", "value": 58, "unit": "%"}, {"measurement": "neoantigen-specific CD4^+ T cells in the total T cell population", "setting": "136TIL", "value": 14.3, "unit": "%"}]}
{"sequence": "GSGEKVAGRVIVKVCEVTRVKAVRI [TXNIP, MHC-I neoantigen of patient #135]", "values": [{"measurement": "percentage of CD8^+ tumor-reactive T-cell clones recognizing the neoantigen", "setting": "T-cell clones of 135TIL", "value": 20, "unit": "%"}, {"measurement": "number of CD8^+ tumor-reactive T-cell clones recognizing the neoantigen", "setting": "T-cell clones of 135TIL", "value": 8}, {"measurement": "CD8^+ T cells recognizing the neoantigen in the total T cell population", "setting": "135TIL", "value": 2.95, "unit": "%"}]}
{"sequence": "LLKTRRILKCSYLYGFFLEPKSTKK [ANKIB1, MHC-II neoantigen of patient #136]", "values": [{"measurement": "T cell recognition, IFN-γ release by CD4^+ 136TIL", "setting": "[1]", "value": "capable of stimulating CD4^+ T cells for IFN-γ release"}, {"measurement": "share in the total tumor-reactive CD4^+ T cell population", "setting": "136TIL", "value": 21, "unit": "%"}, {"measurement": "neoantigen-specific CD4^+ T cells in the total T cell population", "setting": "136TIL", "value": 5.2, "unit": "%"}]}
